These results are taken from ChEMBL document CHEMBL4020773, “Identification of quinazoline based inhibitors of IRAK4 for the treatment of inflammation” (Bioorg Med Chem Lett, 2017).

A value given as a limit tells only on which side of the number the result lay.

The target in data set [1] is T1, Interleukin-1 receptor-associated kinase 4 (Homo sapiens) (UniProt Q9NWZ3).
T1 sequence (whole entry): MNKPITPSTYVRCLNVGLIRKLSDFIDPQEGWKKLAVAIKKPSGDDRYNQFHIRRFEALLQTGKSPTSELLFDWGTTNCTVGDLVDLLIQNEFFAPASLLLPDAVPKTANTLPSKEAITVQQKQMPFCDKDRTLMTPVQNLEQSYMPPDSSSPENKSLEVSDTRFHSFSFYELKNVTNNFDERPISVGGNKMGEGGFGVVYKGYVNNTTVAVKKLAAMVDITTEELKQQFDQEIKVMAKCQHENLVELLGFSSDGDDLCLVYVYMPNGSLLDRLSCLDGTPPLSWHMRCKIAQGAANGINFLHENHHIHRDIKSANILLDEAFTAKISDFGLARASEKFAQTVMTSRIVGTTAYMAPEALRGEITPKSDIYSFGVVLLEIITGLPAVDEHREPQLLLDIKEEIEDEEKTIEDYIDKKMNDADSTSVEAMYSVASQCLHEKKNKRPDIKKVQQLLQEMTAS
The data set is described as follows: Inhibition of IRAK4 in human whole blood assessed as reduction in R848-stimulated TNF alpha production preincubated for 30 mins followed by R848 addition measured after 5 hrs.

In data set [2] the target is T2, Interleukin-1 receptor-associated kinase 4 (Homo sapiens, UniProt Q9NWZ3).
T2 sequence (Q9NWZ3 whole entry): T1 sequence (whole entry)
The data set is described as follows: Inhibition of recombinant human full length GST tagged IRAK4 expressed in baculovirus infected Sf9 cells using RP7030 peptide as substrate after 30 mins in presence of ATP by fluorescence polarization assay.

The nature of data set [3]: Apparent permeability in MDCK cells. The note with it: dog. Type of data set: ADME, cell-based, Canis lupus familiaris.
Data set [4] relates to Rattus norvegicus. Put plainly: In vivo inhibition of IRAK4 in Lewis rat assessed as reduction in R848-stimulated serum IL-6 secretion at 3 mg/kg, po administered once daily pretreated for 1 hr followed by R848 challenge measured after 1.5 hrs relative to control. The data set is classed as functional.
The test system of data set [5] is Rattus norvegicus. The data set is described as follows: Terminal plasma concentration in Lewis rat at 3 mg/kg, po administered once daily. The conditions noted are these: in vivo, read-out: Cp(T). Type of data set: ADME, organism-based.
Data set [6] concerns Rattus norvegicus. Put plainly: Terminal plasma concentration in Lewis rat at 10 mg/kg, po administered once daily. Type of data set: ADME, organism-based. The note with it: in vivo, read-out: Cp(T).
A short description of data set [7]: Half life in rat. Type of data set: ADME. The conditions noted are these: in vivo.
For data set [8], the target named is T3, Interleukin-1 receptor-associated kinase 4 (Rattus norvegicus, UniProt D4A7K4).
T3 sequence (D4A7K4 whole entry): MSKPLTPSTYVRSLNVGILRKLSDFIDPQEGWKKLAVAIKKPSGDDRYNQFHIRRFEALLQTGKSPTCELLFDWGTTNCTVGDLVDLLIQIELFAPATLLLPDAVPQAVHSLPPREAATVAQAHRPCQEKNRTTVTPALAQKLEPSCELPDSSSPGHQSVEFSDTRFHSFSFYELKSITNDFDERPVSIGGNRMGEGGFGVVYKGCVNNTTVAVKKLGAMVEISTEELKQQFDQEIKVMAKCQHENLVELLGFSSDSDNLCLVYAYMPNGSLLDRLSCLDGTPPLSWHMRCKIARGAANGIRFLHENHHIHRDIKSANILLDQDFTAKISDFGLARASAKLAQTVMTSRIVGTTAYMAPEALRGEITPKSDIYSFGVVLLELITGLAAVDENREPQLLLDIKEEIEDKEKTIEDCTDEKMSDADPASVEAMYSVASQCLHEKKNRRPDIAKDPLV
Put plainly: Inhibition of IRAK4 in Lewis rat whole blood assessed as reduction in R848-stimulated TNF alpha production after 4 hrs.

Data set [9] can be described thus: Clearance in rat. The data set is classed as ADME. The conditions noted are these: in vivo.
Data set [10] has as its system Rattus norvegicus. Put plainly: In vivo inhibition of IRAK4 in Lewis rat assessed as reduction in R848-stimulated serum IL-6 secretion at 100 mg/kg, po administered once daily pretreated for 1 hr followed by R848 challenge measured after 1.5 hrs relative to control. Type of data set: functional.
A short description of data set [11]: Oral bioavailability in rat. Type of data set: ADME, organism-based. The conditions noted are these: in vivo.
The subject of data set [12] is Rattus norvegicus. The data set is described as follows: In vivo inhibition of IRAK4 in Lewis rat assessed as reduction in R848-stimulated serum IL-6 secretion at 30 mg/kg, po administered once daily pretreated for 1 hr followed by R848 challenge measured after 1.5 hrs relative to control. Type of data set: functional.
In data set [13] the test system is Rattus norvegicus. The data set is described as follows: In-vivo inhibition of IRAK4 in po dosed Lewis rat assessed as reduction in R848-stimulated serum IL-6 secretion administered once daily pretreated for 1 hr followed by R848 challenge measured after 1.5 hrs. Type of data set: functional, organism-based.
Data set [14] has as its system Rattus norvegicus. The data set is described as follows: Terminal plasma concentration in Lewis rat at 100 mg/kg, po administered once daily. The conditions noted are these: in vivo, read-out: Cp(T). Type of data set: ADME, organism-based.
For data set [15], the system named is Rattus norvegicus. The data set is described as follows: In vivo inhibition of IRAK4 in Lewis rat assessed as reduction in R848-stimulated serum IL-6 secretion at 10 mg/kg, po administered once daily pretreated for 1 hr followed by R848 challenge measured after 1.5 hrs relative to control. The data set is classed as functional.
The subject of data set [16] is Rattus norvegicus. The data set is described as follows: Terminal plasma concentration in Lewis rat at 30 mg/kg, po administered once daily. The conditions noted are these: in vivo, read-out: Cp(T). Type of data set: ADME, organism-based.

For `CN(C)[C@H]1CC[C@H](Nc2ncnc3cc(F)c(F)cc23)CC1`, in [1], the IC50 (commonly the concentration that inhibits the measured activity by half) is over 10000 nM.

Turning to `CN(C)[C@H]1CC[C@H](Nc2ncnc3ccc(C(F)(F)F)cc23)CC1`, in data set [1], the IC50 came to 620 nM.

`N#Cc1ccc2ncnc(N[C@H]3CC[C@H](N4CCC4)CC3)c2c1`: the IC50 was 620 nM in data set [1] and 35 nM in data set [2].

Take `CC(C)c1ccc2ncnc(N[C@H]3CC[C@H](N(C)C)CC3)c2c1`: the IC50 came to 1100 nM in [1] and 16 nM in data set [2].

For `N#Cc1ccc2ncnc(N[C@H]3CC[C@H](N4CCC(F)(F)CC4)CC3)c2c1`, in data set [1], the IC50 amounted to 200 nM.

On to `CNCCCCc1c(-c2cc(C)cc(C)c2)cnc2ccc(-c3cncc(O)c3)cc12`, for which the apparent permeability (Papp) (in general, the rate of passage across a membrane or cell layer, normalised by area and donor concentration) in [3] amounted to 11 ×10⁻⁶ cm/s.

`CS(=O)(=O)N1CCN([C@H]2CC[C@H](Nc3ncnc4ccc(C#N)cc34)CC2)CC1`: the IC50 in data set [1] turned out to be 330 nM.

Take `N#Cc1ccc2ncnc(N[C@H]3CC[C@H](N4CCC(F)CC4)CC3)c2c1`: the IC50 in data set [1] turned out to be 100 nM.

With `C[C@@H]1C[C@H]2[C@@H]3CCC4=CC(=O)C=C[C@]4(C)[C@@]3(F)[C@@H](O)C[C@]2(C)[C@@]1(O)C(=O)CO` [DEXAMETHASONE], the inhibition in vivo (usually the drop in the measured response relative to a control, in per cent) at 3 mg/kg in data set [4] turned out to be 86%. Also, in data set [5], the concentration stood at 10 µM.

On to `CCc1ccc2ncnc(N[C@H]3CC[C@H](N(C)C)CC3)c2c1`, for which the figures for the IC50 in [1] and in data set [2] were 1200 nM and 17 nM, respectively.

Regarding `N#Cc1ccc2ncnc(N[C@H]3CC[C@H](N4CCCC4)CC3)c2c1`, in [1], the 50% inhibitory concentration (IC50) amounted to 300 nM.

Regarding `CN1CCN([C@H]2CC[C@H](Nc3ncnc4ccc(C#N)cc34)CC2)CC1`, in data set [1], the IC50 came to 274 nM.

For `N#Cc1ccc2ncnc(N[C@H]3CC[C@H](N4CCOCC4)CC3)c2c1`, the concentration in [6] amounted to 19 µM; in [5] it was 5.7 µM; in [14], 112 µM; in data set [16], 54 µM. Moreover, the half-life (in general, the time in which the quantity being followed falls by half) in data set [7] is 1.3 h. Also, the values for the IC50 in [1] and in [2] were 300 nM and 7 nM, respectively. Also, the EC50 (as a rule, the midpoint of the concentration-response curve) in [8] amounted to 2300 nM. Besides, the clearance (as a rule, the volume of plasma or blood freed of the substance per unit of time) in [9] turned out to be 22 mL/min/kg. Also, the Papp in [3] amounted to 41 ×10⁻⁶ cm/s. The inhibition in vivo at 100 mg/kg in data set [10] amounted to 91%. Further, in [11], the bioavailability (usually dose-corrected exposure relative to a reference, in per cent) was 73%. The inhibition in vivo at 30 mg/kg in data set [12] was determined as 57%. The inhibition result in data set [13] was “Dose-dependent effect”. Moreover, the inhibition in vivo at 10 mg/kg in data set [15] came to 2%.

With `COc1ccc2ncnc(N[C@H]3CC[C@H](N(C)C)CC3)c2c1`, the IC50 in [1] came out at 1100 nM; in data set [2] it was 16 nM.

As for `CN(C)[C@H]1CC[C@H](Oc2ncnc3ccc([N+](=O)[O-])cc23)CC1`, the IC50 was 2000 nM in data set [1] and 58 nM in [2].

Take `CN(C)[C@H]1CC[C@H](Nc2ncnc3ccc(C4CC4)cc23)CC1`: the results for the IC50 in [1] and in data set [2] were 2500 nM and 12 nM, respectively.

For the compound `CN(C)[C@H]1CC[C@H](Nc2ncnc3ccc(C#N)cc23)CC1`, the IC50 in [1] turned out to be 770 nM. Besides, in data set [8], the EC50 worked out at 1700 nM.

`Cc1ccc2ncnc(N[C@H]3CC[C@H](N(C)C)CC3)c2c1`: the IC50 in data set [1] was found to be 1800 nM.

On to `N#Cc1ccc2ncnc(N[C@H]3CC[C@H](N)CC3)c2c1`, for which the IC50 in data set [1] was 1400 nM; in data set [2] it was 32 nM.

In the case of `CN(C)[C@H]1CC[C@H](Nc2ncnc3ccc(Br)cc23)CC1`, the half-maximal inhibitory concentration (IC50) in data set [1] came to 290 nM; in data set [2], 10 nM.
